Reference: patent US20110190503A1, “Thiazolopyridin-2-yloxy-phenyl and thiazolopyrazin-2-yloxy-phenyl amines as modulators of leukotriene A4 hydrolase” (Janssen Pharmaceutical NV, priority 2008, published 2011)
Counter-ions that a name gives are not always drawn.

Molecular target: T1, recombinant human LTA4 hydrolase (rhLTA4H) (Homo sapiens, UniProt P09960)
T1 construct: made in house; host or cells: Spodoptera frugiperda (Sf-9) cells, recombinant baculovirus (pFastBac1)
T1 sequence (P09960 1-611): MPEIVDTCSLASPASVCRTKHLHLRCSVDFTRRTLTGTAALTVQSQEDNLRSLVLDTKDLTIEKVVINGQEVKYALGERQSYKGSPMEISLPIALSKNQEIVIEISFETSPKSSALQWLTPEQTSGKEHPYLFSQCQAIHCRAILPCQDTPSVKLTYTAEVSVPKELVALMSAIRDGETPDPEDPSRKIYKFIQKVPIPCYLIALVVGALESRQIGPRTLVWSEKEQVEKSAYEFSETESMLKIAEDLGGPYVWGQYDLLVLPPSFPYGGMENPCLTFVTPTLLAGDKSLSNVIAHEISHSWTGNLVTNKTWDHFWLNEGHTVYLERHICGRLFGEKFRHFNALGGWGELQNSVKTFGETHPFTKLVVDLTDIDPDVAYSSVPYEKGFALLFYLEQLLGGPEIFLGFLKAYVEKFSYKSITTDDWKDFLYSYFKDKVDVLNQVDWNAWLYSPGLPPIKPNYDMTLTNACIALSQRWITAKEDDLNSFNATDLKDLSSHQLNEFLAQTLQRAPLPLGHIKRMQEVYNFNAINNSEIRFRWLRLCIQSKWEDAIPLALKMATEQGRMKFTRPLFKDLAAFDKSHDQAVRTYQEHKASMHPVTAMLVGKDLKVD
Experiment: Recombinant human LTA4 hydrolase assay for LTA4 hydrolase inhibitor activity
Assay type: biochemical
Details: rhLTA4H, LTA4 substrate, LTB4 by immunoassay; single determination or average; read-out: IC50
Procedure: Assay 1: Recombinant Human LTA4 Hydrolase Assay for LTA4 Hydrolase Inhibitor Activity
Compounds of the present invention were tested for LTA4 hydrolase inhibitor activity against recombinant human LTA4 hydrolase (rhLTA4H). Vectors were prepared and used to express rhLTA4H essentially as follows: LTA4 hydrolase encoding DNA was amplified by polymerase chain reaction (PCR) using a human placental cDNA library as a template. […] The amplified 1.9 kb DNA fragment encoding LTA4 hydrolase was isolated and cloned into the pFastBac1 vector (Invitrogen). Recombinant baculovirus was generated as described by the manufacturer, and used to infect Spodoptera frugiperda (Sf-9) cells. […] The purified enzyme solution was adjusted to contain 0.29 mg/mL LTA4 hydrolase, 50 mM Tris (pH 8.0), 150 mM NaCl, 5 mM dithiothreitol, 50% glycerol, and EDTA-free Complete protease inhibitor cocktail (Roche).
LTA4 substrate was prepared from the methyl ester of LTA4 (Cayman Chemical) by treatment with 67 equiv of NaOH under nitrogen at rt for 40 min. The LTA4 substrate in its free acid form was kept frozen at −80° C. until needed. Each compound was diluted to different concentrations in assay buffer (from Assay Designs) containing 10% DMSO. A 25-μL aliquot of each compound dilution was incubated for 10 min at rt with an equal volume of assay buffer containing 10 ng of recombinant human LTA4H. The solution was then adjusted to 200 μL with assay buffer. […] Each reaction was carried out at rt for 30 min. The reaction was stopped by diluting 10 μL of the reaction mixture with 200 μL of assay buffer. LTB4 was quantified in the diluted sample by a commercially available enzyme-linked immunoassay (Cayman Chemical Co.), as recommended by the manufacturer. Positive controls, under essentially identical conditions but without addition of an inhibitor compound, and negative controls, containing all assay components except enzyme, were routinely run in each experiment. IC50 values were determined by nonlinear regression of the activity data at different compound concentrations using Graphpad Prism 4.0, one site binding competition.
The values presented here are the result of a single determination or an average of two or more determinations, as indicated in parentheses following each value. For compounds tested three or more times, the average value is followed by the standard deviation

SMILES	IC50
CCN(CCc1ccc(Oc2nc3cccnc3s2)cc1)C1CC1 [Example 174, N-Ethyl-N-{2-[4-([1,3]thiazolo[5,4-b]pyridin-2-yloxy)phenyl]ethyl}cyclopropanamine]	94 nM
Cc1ccnc2nc(Oc3ccc(CN4C[C@H]5CC[C@@H](C4)N5C(N)=O)cc3)sc12 [Example 203, meso-3-{4-[(7-Methyl[1,3]thiazolo[4,5-b]pyridin-2-yl)oxy]benzyl}-3,8-diazabicyclo[3.2.1]octane-8-carboxamide]	679 nM
c1cnc2sc(Oc3ccc(CCN4CCCCCC4)cc3)nc2n1 [Example 179, 2-{[4-(2-Azepan-1-ylethyl)phenyl]oxy}[1,3]thiazolo[4,5-b]pyrazine]	38 nM
FC(F)(F)C1CCN(CCOc2ccc(Oc3nc4cnccc4s3)cc2)CC1 [Example 164, 2-{[4-({2-[4-(Trifluoromethyl)piperidin-1-yl]ethyl}oxy)phenyl]oxy}[1,3]thiazolo[4,5-c]pyridine]	45 nM
NC(=O)N1C[C@@H]2C[C@H]1CN2Cc1ccc(Oc2nc3ncc(Cl)cc3s2)cc1 [Example 193, (1S,4S)-5-({4-[(6-Chloro[1,3]thiazolo[4,5-b]pyridin-2-yl)oxy]phenyl}methyl)-2,5-diazabicyclo[2.2.1]heptane-2-carboxamide]	58 nM
CC(=O)N1[C@@H]2CC[C@H]1C[C@H](NCc1ccc(Oc3nc4ncc(C)cc4s3)cc1)C2 [Example 181, meso-(3-exo)-8-Acetyl-N-({4-[(6-methyl[1,3]thiazolo[4,5-b]pyridin-2-yl)oxy]phenyl}methyl)-8-azabicyclo[3.2.1]octan-3-amine]	332 nM
CN(C)C1CCN(Cc2ccc(Oc3nc4ncccc4s3)cc2)CC1 [Example 259, N,N-Dimethyl-1-[4-([1,3]thiazolo[4,5-b]pyridin-2-yloxy)benzyl]piperidin-4-amine]	140 nM
CS(=O)(=O)N[C@@H]1C[C@H]2CC[C@@H](C1)N2Cc1ccc(Oc2nc3ccncc3s2)cc1 [Example 249, meso-N-{(3-exo)-8-[4-([1,3]Thiazolo[5,4-c]pyridin-2-yloxy)benzyl]-8-azabicyclo[3.2.1]oct-3-yl}methanesulfonamide]	141 nM
O=C1CCCN1C1CCN(CCOc2ccc(Oc3nc4ccncc4s3)cc2)CC1 [Example 144, 1-(1-{2-[4-([1,3]Thiazolo[5,4-c]pyridin-2-yloxy)phenoxy]ethyl}piperidin-4-yl)pyrrolidin-2-one]	350 nM
CC(=O)N1[C@@H]2CC[C@H]1C[C@H](NCCOc1ccc(Oc3nc4ncccc4s3)cc1)C2 [Example 215, meso-(3-exo)-8-Acetyl-N-{2-[4-([1,3]thiazolo[4,5-b]pyridin-2-yloxy)phenoxy]ethyl}-8-azabicyclo[3.2.1]octan-3-amine hydrochloride]	21 nM
Cc1ccnc2nc(Oc3ccc(CN4CCC(NC(=O)c5ccncc5)CC4)cc3)sc12 [Example 206, N-(1-{4-[(7-Methyl[1,3]thiazolo[4,5-b]pyridin-2-yl)oxy]benzyl}piperidin-4-yl)pyridine-4-carboxamide]	35 nM
CC(C)(C)C1CCN(Cc2ccc(Oc3nc4ncc(Cl)cc4s3)cc2)CC1 [Example 218, 2-{4-[(4-tert-Butylpiperidin-1-yl)methyl]phenoxy}-6-chloro[1,3]thiazolo[4,5-b]pyridine]	212 nM
CC(=O)N1[C@@H]2CC[C@H]1C[C@H](NCCc1ccc(Oc3nc4ncccc4s3)cc1)C2 [Example 214, meso-(3-exo)-8-Acetyl-N-{2-[4-([1,3]thiazolo[4,5-b]pyridin-2-yloxy)phenyl]ethyl}-8-azabicyclo[3.2.1]octan-3-amine]	3 nM
O=C(C1CC1)N1CCN(CCc2ccc(Oc3nc4ncc(Cl)cc4s3)cc2)CC1 [Example 197, 6-Chloro-2-[(4-{2-[4-(cyclopropylcarbonyl)piperazin-1-yl]ethyl}phenyl)oxy][1,3]thiazolo[4,5-b]pyridine]	360 nM
CN1CCN(Cc2ccc(Oc3nc4cccnc4s3)cc2)CCC1=O [Example 207, 4-Methyl-1-[4-([1,3]thiazolo[5,4-b]pyridin-2-yloxy)benzyl]-1,4-diazepan-5-one]	1840 nM
OC1(c2ccc(Cl)cc2)CCN(CCOc2ccc(Oc3nc4cccnc4s3)cc2)CC1 [Example 39, 4-(4-Chlorophenyl)-1-{2-[4-([1,3]thiazolo[5,4-b]pyridin-2-yloxy)phenoxy]ethyl}piperidin-4-ol]	260 nM
NC(=O)N1[C@@H]2CC[C@H]1C[C@H](NCc1ccc(Oc3nc4cccnc4s3)cc1)C2 [Example 201, meso-(3-exo)-3-{[4-([1,3]Thiazolo[5,4-b]pyridin-2-yloxy)benzyl]amino}-8-azabicyclo[3.2.1]octane-8-carboxamide]	891 nM
FC1CCN(CCc2ccc(Oc3nc4nccnc4s3)cc2)CC1 [Example 180, 2-({4-[2-(4-Fluoropiperidin-1-yl)ethyl]phenyl}oxy)[1,3]thiazolo[4,5-b]pyrazine]	71 nM
NC(=O)N1[C@@H]2CC[C@H]1CN(CCc1ccc(Oc3nc4ncccc4s3)cc1)C2 [Example 210, meso-3-{2-[4-([1,3]Thiazolo[4,5-b]pyridin-2-yloxy)phenyl]ethyl}-3,8-diazabicyclo[3.2.1]octane-8-carboxamide hydrochloride]	6 nM
Cc1cnc2nc(Oc3ccc(CN4CCC(C(=O)N5CCNCC5)CC4)cc3)sc2c1 [Example 229, 6-Methyl-2-(4-{[4-(piperazin-1-ylcarbonyl)piperidin-1-yl]methyl}phenoxy)[1,3]thiazolo[4,5-b]pyridine hydrochloride]	1090 nM
O=C(O)C1CCN(Cc2ccc(Oc3nc4cccnc4s3)cc2)CC1 [Example 132, 1-[4-([1,3]Thiazolo[5,4-b]pyridin-2-yloxy)benzyl]piperidine-4-carboxylic acid]	1000 nM
CC(=O)N1C[C@@H]2C[C@H]1CN2CCc1ccc(Oc2nc3cccnc3s2)cc1 [Example 51, 2-(4-{2-[(1S,4S)-5-Acetyl-2,5-diazabicyclo[2.2.1]hept-2-yl]ethyl}phenoxy)[1,3]thiazolo[5,4-b]pyridine]	110 nM
Cc1cnc2nc(Oc3ccc(CN4CCC(NC(=O)c5cccs5)CC4)cc3)sc2c1 [Example 220, N-(1-{4-[(6-Methyl[1,3]thiazolo[4,5-b]pyridin-2-yl)oxy]benzyl}piperidin-4-yl)thiophene-2-carboxamide]	109 nM
NC(=O)C1CCN(Cc2ccc(Oc3nc4cccnc4s3)cc2)CC1 [Example 113, 1-[4-([1,3]Thiazolo[5,4-b]pyridin-2-yloxy)benzyl]piperidine-4-carboxamide]	570 nM
c1cc2sc(Oc3ccc(CCN4CCCC4)cc3)nc2cn1 [Example 221, 2-[4-(2-Pyrrolidin-1-ylethyl)phenoxy][1,3]thiazolo[4,5-c]pyridine]	181 nM
CC(C)(CO)NC(=O)C1CCN(CCOc2ccc(Oc3nc4cnccc4s3)cc2)CC1 [Example 161, N-(2-Hydroxy-1,1-dimethylethyl)-1-(2-{[4-([1,3]thiazolo[4,5-c]pyridin-2-yloxy)phenyl]oxy}ethyl)piperidine-4-carboxamide]	535 nM
OCCCN(CCOc1ccc(Oc2nc3ccncc3s2)cc1)CC1CC1 [Example 156, 3-[(Cyclopropylmethyl){2-[4-([1,3]thiazolo[5,4-c]pyridin-2-yloxy)phenoxy]ethyl}amino]propan-1-ol]	494 nM
c1cc2nc(Oc3ccc(CN4CCCCC4)cc3)sc2cn1 [Example 114, 2-[4-(Piperidin-1-ylmethyl)phenoxy][1,3]thiazolo[5,4-c]pyridine]	680 nM
CCCN(CCC)CCc1ccc(Oc2nc3cnccc3s2)cc1 [Example 196, N-Propyl-N-{2-[4-([1,3]thiazolo[4,5-c]pyridin-2-yloxy)phenyl]ethyl}propan-1-amine]	87 nM
